Values of other authors as cited in US20090041840A1, “Positive wakeup pharmaceutical sleep system with compatible pre-bedtime administration” (priority 2003, published 2009).

Columns and labels:
[1] = Wesensten
[2] = not given; remark: listed apart in the source

CCOC(=O)c1ncn2c1CN(C)C(=O)c1cc(F)ccc1-2 [Flumazenil, ethyl 8-fluoro-5,6-dihydro-5-methyl-6-oxo-4H-imidazo(1,5a)(1,4)benzodiazepine-3-carboxylate]
Effect in countering sleep deprivation [1]: ineffective

CCN(C(C)=O)c1cccc(-c2ccnc3c(C#N)cnn23)c1 [zaleplon]
Solubility in water: practically insoluble

Cn1c(=O)c2c(ncn2C)n(C)c1=O [caffeine, 1,3,7-trimethylxanthine]
Mean half-life in plasma ([2]; healthy individuals, Brachtel and Richter, Busto et al.): about 5 hours

COC(=O)C(c1ccccc1)C1CCCCN1 (racemic) [methylphenidate]
Half-life, average ([2]; literature sources): 2.5 h

NC(=O)C[S+]([O-])C(c1ccccc1)c1ccccc1 (centres unmarked) [modafinil]
Half-life ([2]; Wong, et al): approximately 15 hours
